Source: ChEMBL document CHEMBL1201862, “PubChem BioAssay data set” (2004)
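Growth conditions: 96-well plates. Treatment: test compound, 48 hours, 5 concentrations. Analysis: linear interpolation between bracketing concentrations; unreached endpoints set to highest concentration. The concentration for 50% growth inhibition is given as GI50.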 Active and inactive are the calls of the source. No stated cut-off is given here; in the data, active = GI50 up to about 1.1 µM and inactive = higher.

Key:
Test in all cases: growth of human tumour cells (NCI), 48 h
786-0 = test system: 786-0
CAKI-1 = test system: CAKI-1
EKVX = test system: EKVX
HCT-116 = test system: HCT-116
K562 = test system: K562
MOLT-4 = test system: MOLT-4
OVCAR-4 = test system: OVCAR-4
OVCAR-8 = test system: OVCAR-8
SF-268 = test system: SF-268
SF-539 = test system: SF-539
SK-MEL-5 = test system: SK-MEL-5
SNB-75 = test system: SNB-75
SW-620 = test system: SW-620
U-251 = test system: U-251
M14 = test system: M14
SR = test system: SR

CN(C)c1snc2c1c(=O)n(C)c(=O)n2C
GI50 (786-0): > 100 µM (inactive)
GI50 (CAKI-1): > 100 µM (inactive)
GI50 (EKVX): 40.1 µM (inactive)
GI50 (HCT-116): > 100 µM (inactive)
GI50 (K562): > 100 µM (inactive)
GI50 (MOLT-4): > 100 µM (inactive)
GI50 (OVCAR-4): > 100 µM (inactive)
GI50 (OVCAR-8): > 100 µM (inactive)
GI50 (SF-268): > 100 µM (inactive)
GI50 (SF-539): > 100 µM (inactive)
GI50 (SK-MEL-5): > 100 µM (inactive)
GI50 (SNB-75): 35.7 µM (inactive)
GI50 (SW-620): > 100 µM (inactive)
GI50 (U-251): > 100 µM (inactive)

N=CCCN(CCC=N)c1ccc(/C=C2\CN(NC(=O)c3ccc(Cl)cc3)C(c3ccccc3)=N2)cc1
GI50 (786-0): 90.2 µM (inactive)
GI50 (CAKI-1): > 100 µM (inactive)
GI50 (EKVX): > 100 µM (inactive)
GI50 (HCT-116): > 100 µM (inactive)
GI50 (K562): > 100 µM (inactive)
GI50 (M14): > 100 µM (inactive)
GI50 (MOLT-4): > 100 µM (inactive)
GI50 (OVCAR-4): > 100 µM (inactive)
GI50 (OVCAR-8): > 100 µM (inactive)
GI50 (SF-268): > 100 µM (inactive)
GI50 (SF-539): > 100 µM (inactive)
GI50 (SK-MEL-5): > 100 µM (inactive)
GI50 (SNB-75): > 100 µM (inactive)
GI50 (SW-620): 15.6 µM (inactive)
GI50 (U-251): 25.8 µM (inactive)

CCCCOC(=O)NC(=O)c1cn(CCSCCOC(=O)NCCCCCCNC(=O)OCCSCCn2cc(C(=O)NC(=O)OCCCC)c(=O)[nH]c2=O)c(=O)[nH]c1=O
GI50 (786-0): 32.3 µM (inactive)
GI50 (EKVX): 91.4 µM (inactive)
GI50 (HCT-116): 73.8 µM (inactive)
GI50 (K562): > 100 µM (inactive)
GI50 (M14): 58.9 µM (inactive)
GI50 (OVCAR-4): > 100 µM (inactive)
GI50 (SF-268): > 100 µM (inactive)
GI50 (SF-539): > 100 µM (inactive)
GI50 (SK-MEL-5): > 100 µM (inactive)
GI50 (SNB-75): 19 µM (inactive)
GI50 (SR): 54.6 µM (inactive)
GI50 (SW-620): > 10 µM (inactive)
GI50 (U-251): 23.4 µM (inactive)

O=C(O)c1ccc(/N=N/c2cc(S(=O)(=O)O)c3cccnc3c2O)cc1
GI50 (786-0): > 100 µM (inactive)
GI50 (CAKI-1): > 100 µM (inactive)
GI50 (EKVX): > 100 µM (inactive)
GI50 (HCT-116): > 100 µM (inactive)
GI50 (K562): > 100 µM (inactive)
GI50 (MOLT-4): > 100 µM (inactive)
GI50 (OVCAR-4): > 100 µM (inactive)
GI50 (OVCAR-8): > 100 µM (inactive)
GI50 (SF-268): > 100 µM (inactive)
GI50 (SF-539): > 100 µM (inactive)
GI50 (SK-MEL-5): > 100 µM (inactive)
GI50 (SNB-75): > 100 µM (inactive)
GI50 (SR): > 100 µM (inactive)
GI50 (SW-620): > 100 µM (inactive)
GI50 (U-251): > 100 µM (inactive)

O=c1c2ccccc2oc2ccccc12.Oc1cccc2cccnc12
GI50 (786-0): 1.66 µM (inactive)
GI50 (CAKI-1): 3.9 µM (inactive)
GI50 (EKVX): 3.44 µM (inactive)
GI50 (HCT-116): 2.56 µM (inactive)
GI50 (K562): 4.99 µM (inactive)
GI50 (M14): 3.11 µM (inactive)
GI50 (MOLT-4): 0.607 µM (active)
GI50 (OVCAR-4): 5.89 µM (inactive)
GI50 (OVCAR-8): 2.36 µM (inactive)
GI50 (SF-268): 2.75 µM (inactive)
GI50 (SF-539): 2.36 µM (inactive)
GI50 (SK-MEL-5): 1.95 µM (inactive)
GI50 (SNB-75): 2.29 µM (inactive)
GI50 (SR): 2.73 µM (inactive)
GI50 (SW-620): 1.77 µM (inactive)

O=[N+]([O-])c1cccc(C2=NN(c3ccccc3)C3c4cc(Br)ccc4OCC23)c1 (centres undefined)
GI50 (786-0): > 100 µM (inactive)
GI50 (EKVX): 87.7 µM (inactive)
GI50 (HCT-116): 45.9 µM (inactive)
GI50 (K562): > 100 µM (inactive)
GI50 (MOLT-4): > 100 µM (inactive)
GI50 (OVCAR-8): > 100 µM (inactive)
GI50 (SF-268): > 100 µM (inactive)
GI50 (SF-539): > 100 µM (inactive)
GI50 (SK-MEL-5): > 100 µM (inactive)
GI50 (SNB-75): > 100 µM (inactive)
GI50 (SW-620): > 100 µM (inactive)
GI50 (U-251): > 100 µM (inactive)

COC(=O)C1=C(O)c2cc(OC)c(OC)c(OC)c2C(c2ccc3c(c2)OCO3)[C@@H]1C(=O)OC (some centres undefined)
GI50 (786-0): 3.65 µM (inactive)
GI50 (CAKI-1): 0.935 µM (active)
GI50 (EKVX): 25.2 µM (inactive)
GI50 (HCT-116): 4.36 µM (inactive)
GI50 (K562): 3.9 µM (inactive)
GI50 (M14): 3.03 µM (inactive)
GI50 (MOLT-4): 4.69 µM (inactive)
GI50 (OVCAR-4): 6.49 µM (inactive)
GI50 (OVCAR-8): 5.37 µM (inactive)
GI50 (SF-268): 4.28 µM (inactive)
GI50 (SF-539): 2.18 µM (inactive)
GI50 (SNB-75): 4.07 µM (inactive)
GI50 (SR): 3.66 µM (inactive)
GI50 (SW-620): 2.22 µM (inactive)
GI50 (U-251): 3.66 µM (inactive)

O=C(Nc1nc2ncn(CCNCCn3cnc4nc(NC(=O)c5ccccc5)[nH]c(=O)c43)c2c(=O)[nH]1)c1ccccc1
GI50 (786-0): > 100 µM (inactive)
GI50 (CAKI-1): > 100 µM (inactive)
GI50 (EKVX): > 100 µM (inactive)
GI50 (HCT-116): > 100 µM (inactive)
GI50 (K562): > 100 µM (inactive)
GI50 (M14): > 100 µM (inactive)
GI50 (MOLT-4): > 100 µM (inactive)
GI50 (OVCAR-4): > 100 µM (inactive)
GI50 (OVCAR-8): > 100 µM (inactive)
GI50 (SF-268): > 100 µM (inactive)
GI50 (SF-539): > 100 µM (inactive)
GI50 (SK-MEL-5): > 100 µM (inactive)
GI50 (SNB-75): > 100 µM (inactive)
GI50 (SW-620): > 100 µM (inactive)
GI50 (U-251): > 100 µM (inactive)

NC(=O)c1cc(C2OC(CO)C(O)C2O)nn1-c1ccc([N+](=O)[O-])cc1 (centres undefined)
GI50 (786-0): > 10 µM (inactive)
GI50 (CAKI-1): > 100 µM (inactive)
GI50 (EKVX): > 100 µM (inactive)
GI50 (HCT-116): > 100 µM (inactive)
GI50 (K562): > 100 µM (inactive)
GI50 (M14): > 100 µM (inactive)
GI50 (MOLT-4): > 100 µM (inactive)
GI50 (OVCAR-4): > 100 µM (inactive)
GI50 (OVCAR-8): > 100 µM (inactive)
GI50 (SF-268): > 100 µM (inactive)
GI50 (SF-539): > 100 µM (inactive)
GI50 (SK-MEL-5): > 100 µM (inactive)
GI50 (SNB-75): > 100 µM (inactive)
GI50 (SW-620): 43.3 µM (inactive)
GI50 (U-251): > 100 µM (inactive)
